Key:
[1] = test system: MDA-MB-231 breast cancer cells; experiment: MTS cell viability, MDA-MB-231 breast cancer cells; assay type: cell-based, human; details: 48 h, read-out: IC50 for 50% inhibition of viability
Description: (§1) MTS assays were performed for cell viability. Human cancer cells were seeded in 96-well plates (2500 cells/well for solid tumors, 5000 cells/well for blood tumors), incubated overnight at 37 C in 5% CO2, and exposed to 5IN-1NH1 or 5IN-1NH1s in a dose-dependent manner for 48 h. See FIGS. 1A-1B, 2A-2B, 3, 4A-4B, and 6A-6B. Dimethyl sulfoxide (DMSO) was used as the vehicle control. Viable cell numbers were determined by tetrazolium conversion to its formazan dye and absorbance was measured at 490 nm using an automated ELISA plate reader. Each experiment was performed in quadruplicate. IC50 values were determined using CalcuSyn software (BIOSOFT®, Cambridge GB).

A549 lung cancer cells = experiment: MTS cell viability, A549 lung cancer cells; assay type: cell-based, human; details: 48 h, read-out: IC50 for 50% inhibition of viability
Description: as §1

MOLM13 AML cells = experiment: MTS cell viability, MOLM13 AML cells (FLT3-ITD); assay type: cell-based, human; details: 48 h, read-out: IC50 for 50% inhibition of viability
Description: as §1
(§2) Compound (1289) inhibits viabilities of MV4-11 and MOLM13 AML cells that harbor an internal tandem duplication (ITD) mutation. MTS assays were performed for cell viability. Human MV4-11 and MOLM13 AML cells (5000/well) were seeded in 96-well plates, incubated overnight at 37° C. in 5% CO2, and exposed to compound (1289) in a dose-dependent manner for 48 h. Dimethyl sulfoxide (DMSO) was used as the vehicle control. Viable cell numbers were determined by tetrazolium conversion to its formazan dye and absorbance was measured at 490 nm using an automated ELISA plate reader. Each experiment was performed in quadruplicate. IC50 values were determined using CalcuSyn software.

FLT3 (ITD) = FLT3 (ITD) (Homo sapiens, UniProt P36888); experiment: In vitro kinase assay, recombinant FLT3 (ITD); assay type: biochemical; details: 33P-ATP, 120 min
Description: (§3) The kinase assays were performed with recombinant class III receptor tyrosine kinase family proteins. Briefly, proteins, freshly prepared substrates and ^33P-ATP (specific activity 0.01 μCi/μl final) were mixed in reaction buffer (20 mM HEPES pH 7.5, 10 mM MgCl2, 1 mM EGTA, 0.02% Brij35, 0.02 mg/ml BSA, 0.1 mM Na3VO4, 2 mM DTT) in the presence of DMSO as control or 5IN-1NH1s. The mixtures were reacted for 120 min at room temperature. Samples were transferred onto P81 ion exchange paper and filters were extensively washed with 0.75% phosphoric acid. The radioactivities were monitored. IC50 values were determined using GraphPad Prism software.
as §3, with “Kinase” for “The kinase”, “FLT3, mutated FLT3-ITD and D835I mutant FLT3 kinases.” for “class III receptor tyrosine kinase family proteins.”, “compound (1289).” for “5IN-1NH1s.”

[2] = test system: SKOV3 ovarian cancer cells; experiment: MTS cell viability, SKOV3 ovarian cancer cells; assay type: cell-based, human; details: 48 h, read-out: IC50 for 50% inhibition of viability
Description: as §1

c-KIT = c-KIT (Homo sapiens, UniProt P10721); experiment: In vitro kinase assay, recombinant c-KIT; assay type: biochemical; details: 33P-ATP, 120 min
Description: (§4) Compound (1289) inhibits activities of FMS, PDGFR α, PDGFR β and c-KIT in vitro. The kinase assays were performed with recombinant FMS, PDGFR α, PDGFR β and c-KIT proteins. Briefly, proteins, freshly prepared substrates and ^33P-ATP (specific activity 0.01 μCi/μl final) were mixed in reaction buffer (20 mM HEPES pH 7.5, 10 mM MgCl2, 1 mM EGTA, 0.02% Brij35, 0.02 mg/ml BSA, 0.1 mM Na3VO4, 2 mM DTT) in the presence of DMSO as control or compound (1289). The mixtures were reacted for 120 min at room temperature. Samples were transferred onto P81 ion exchange paper and filters were extensively washed with 0.75% phosphoric acid. The radioactivities were monitored.
as §3

ABL1 = ABL1 (Homo sapiens, UniProt P00519); experiment: Kinase profiling in vitro, ABL1; assay type: biochemical; details: recombinant ABL1, 33P-ATP, 120 min
Description: as §3, with “recombinant” for “recombinant class III receptor tyrosine kinase family”

c-Src = c-Src (Homo sapiens, UniProt P12931); experiment: Kinase profiling in vitro, c-Src; assay type: biochemical; details: recombinant c-Src, 33P-ATP, 120 min
Description: as §3, with “recombinant” for “recombinant class III receptor tyrosine kinase family”

[3] = test system: DU145 prostate cancer cells; experiment: MTS cell viability, DU145 prostate cancer cells; assay type: cell-based, human; details: 48 h, read-out: IC50 for 50% inhibition of viability
Description: as §1

JAK2 = JAK2 (Homo sapiens, UniProt O60674); experiment: Kinase profiling in vitro, JAK2; assay type: biochemical; details: recombinant JAK2, 33P-ATP, 120 min
Description: as §3, with “recombinant” for “recombinant class III receptor tyrosine kinase family”

FLT3 (D835Y) = FLT3 (D835Y) (Homo sapiens, UniProt P36888, D835Y); experiment: In vitro kinase assay, recombinant FLT3 (D835Y); assay type: biochemical; details: 33P-ATP, 120 min
Description: as §3
as §3, with “Kinase” for “The kinase”, “FLT3, mutated FLT3-ITD and D835I mutant FLT3 kinases.” for “class III receptor tyrosine kinase family proteins.”, “compound (1289).” for “5IN-1NH1s.”

CDK2/cyclin A = CDK2/cyclin A (Homo sapiens, UniProt P24941); experiment: Kinase profiling in vitro, CDK2/cyclin A; assay type: biochemical; details: recombinant CDK2/cyclin A, 33P-ATP, 120 min
Description: as §3, with “recombinant” for “recombinant class III receptor tyrosine kinase family”

A2058 melanoma cells = experiment: MTS cell viability, A2058 melanoma cells; assay type: cell-based, human; details: 48 h, read-out: IC50 for 50% inhibition of viability
Description: as §1

Aurora A = Aurora A (Homo sapiens, UniProt O14965); experiment: Kinase profiling in vitro, Aurora A; assay type: biochemical; details: recombinant Aurora A, 33P-ATP, 120 min
Description: as §3, with “recombinant” for “recombinant class III receptor tyrosine kinase family”

PDGFR β = PDGFR β (Homo sapiens, UniProt P09619); experiment: In vitro kinase assay, recombinant PDGFR β; assay type: biochemical; details: 33P-ATP, 120 min
Description: as §4, §3

FLT3 [4] = molecular target: FLT3 (Homo sapiens, UniProt P36888); experiment: In vitro kinase assay, recombinant FLT3; assay type: biochemical; details: recombinant FLT3, 33P-ATP, 120 min
Description: as §3
as §3, with “Kinase” for “The kinase”, “FLT3, mutated FLT3-ITD and D835I mutant FLT3 kinases.” for “class III receptor tyrosine kinase family proteins.”, “compound (1289).” for “5IN-1NH1s.”

FLT3 [5] = experiment: In vitro kinase assay, recombinant FLT3; assay type: biochemical; details: recombinant class III receptor tyrosine kinase family proteins
Description: as §3
as §3, with “Kinase” for “The kinase”, “FLT3, mutated FLT3-ITD and D835I mutant FLT3 kinases.” for “class III receptor tyrosine kinase family proteins.”, “compound (1289).” for “5IN-1NH1s.”

BRAF = BRAF (Homo sapiens, UniProt P15056); experiment: Kinase profiling in vitro, BRAF; assay type: biochemical; details: recombinant BRAF, 33P-ATP, 120 min
Description: as §3, with “recombinant” for “recombinant class III receptor tyrosine kinase family”

KCL22 CML cells = experiment: MTS cell viability, KCL22 CML cells; assay type: cell-based, human; details: 48 h, read-out: IC50 for 50% inhibition of viability
Description: as §1

AKT1 = AKT1 (Homo sapiens, UniProt P31749); experiment: Kinase profiling in vitro, AKT1; assay type: biochemical; details: recombinant AKT1, 33P-ATP, 120 min
Description: as §3, with “recombinant” for “recombinant class III receptor tyrosine kinase family”

ABL1 (T315I) = ABL1 (T315I) (Homo sapiens, UniProt P00519, T315I); experiment: Kinase profiling in vitro, ABL1 (T315I); assay type: biochemical; details: recombinant ABL1 (T315I), 33P-ATP, 120 min
Description: as §3, with “recombinant” for “recombinant class III receptor tyrosine kinase family”

KDR/vEGFR2 = KDR/vEGFR2 (Homo sapiens, UniProt P35968); experiment: Kinase profiling in vitro, KDR/vEGFR2; assay type: biochemical; details: recombinant KDR/vEGFR2, 33P-ATP, 120 min
Description: as §3, with “recombinant” for “recombinant class III receptor tyrosine kinase family”

PDGFR α = PDGFR α (Homo sapiens, UniProt P16234); experiment: In vitro kinase assay, recombinant PDGFR α; assay type: biochemical; details: 33P-ATP, 120 min
Description: as §4, §3

MV4-11 AML cells = experiment: MTS cell viability, MV4-11 AML cells (FLT3-ITD); assay type: cell-based, human; details: 48 h, read-out: IC50 for 50% inhibition of viability
Description: as §1, §2

FMS = FMS (Homo sapiens, UniProt P07333); experiment: In vitro kinase assay, recombinant FMS; assay type: biochemical; details: 33P-ATP, 120 min
Description: as §4, §3

[6] = test system: T315I ABL1 mutant KCL22 CML cells; experiment: MTS cell viability, T315I ABL1 mutant KCL22 CML cells; assay type: cell-based, human; details: T315I ABL1 mutant KCL22 CML cells, MTS, 48 h; read-out: IC50 for 50% inhibition of viability
Description: as §1
Human DU145 prostate cancer, A2058 melanoma, SKOV3 ovarian cancer and T315I ABL1 mutant KCL22 CML cells were seeded in 96-well plates (2500 cells/well for solid tumors, 5000 cells/well for blood tumors), incubated overnight at 37° C. in 5% CO2, and exposed to 5IN-6NC1, 5IN-1NH1, 5IN-6NNC6, or 5IN-6NNC7 in a dose-dependent manner for 48 h. Dimethyl sulfoxide (DMSO) was used as the vehicle control. Viable cell numbers were determined by tetrazolium conversion to its formazan dye and absorbance was measured at 490 nm using an automated ELISA plate reader. Each experiment was performed in quadruplicate. IC50 values were determined using CalcuSyn software.

GSK3β = GSK3β (Homo sapiens, UniProt P49841); experiment: Kinase profiling in vitro, GSK3β; assay type: biochemical; details: recombinant GSK3β, 33P-ATP, 120 min
Description: as §3, with “recombinant” for “recombinant class III receptor tyrosine kinase family”

IGF1R = IGF1R (Homo sapiens, UniProt P08069); experiment: Kinase profiling in vitro, IGF1R; assay type: biochemical; details: recombinant IGF1R, 33P-ATP, 120 min
Description: as §3, with “recombinant” for “recombinant class III receptor tyrosine kinase family”

Chain of KDR/vEGFR2 (P35968 20-1356): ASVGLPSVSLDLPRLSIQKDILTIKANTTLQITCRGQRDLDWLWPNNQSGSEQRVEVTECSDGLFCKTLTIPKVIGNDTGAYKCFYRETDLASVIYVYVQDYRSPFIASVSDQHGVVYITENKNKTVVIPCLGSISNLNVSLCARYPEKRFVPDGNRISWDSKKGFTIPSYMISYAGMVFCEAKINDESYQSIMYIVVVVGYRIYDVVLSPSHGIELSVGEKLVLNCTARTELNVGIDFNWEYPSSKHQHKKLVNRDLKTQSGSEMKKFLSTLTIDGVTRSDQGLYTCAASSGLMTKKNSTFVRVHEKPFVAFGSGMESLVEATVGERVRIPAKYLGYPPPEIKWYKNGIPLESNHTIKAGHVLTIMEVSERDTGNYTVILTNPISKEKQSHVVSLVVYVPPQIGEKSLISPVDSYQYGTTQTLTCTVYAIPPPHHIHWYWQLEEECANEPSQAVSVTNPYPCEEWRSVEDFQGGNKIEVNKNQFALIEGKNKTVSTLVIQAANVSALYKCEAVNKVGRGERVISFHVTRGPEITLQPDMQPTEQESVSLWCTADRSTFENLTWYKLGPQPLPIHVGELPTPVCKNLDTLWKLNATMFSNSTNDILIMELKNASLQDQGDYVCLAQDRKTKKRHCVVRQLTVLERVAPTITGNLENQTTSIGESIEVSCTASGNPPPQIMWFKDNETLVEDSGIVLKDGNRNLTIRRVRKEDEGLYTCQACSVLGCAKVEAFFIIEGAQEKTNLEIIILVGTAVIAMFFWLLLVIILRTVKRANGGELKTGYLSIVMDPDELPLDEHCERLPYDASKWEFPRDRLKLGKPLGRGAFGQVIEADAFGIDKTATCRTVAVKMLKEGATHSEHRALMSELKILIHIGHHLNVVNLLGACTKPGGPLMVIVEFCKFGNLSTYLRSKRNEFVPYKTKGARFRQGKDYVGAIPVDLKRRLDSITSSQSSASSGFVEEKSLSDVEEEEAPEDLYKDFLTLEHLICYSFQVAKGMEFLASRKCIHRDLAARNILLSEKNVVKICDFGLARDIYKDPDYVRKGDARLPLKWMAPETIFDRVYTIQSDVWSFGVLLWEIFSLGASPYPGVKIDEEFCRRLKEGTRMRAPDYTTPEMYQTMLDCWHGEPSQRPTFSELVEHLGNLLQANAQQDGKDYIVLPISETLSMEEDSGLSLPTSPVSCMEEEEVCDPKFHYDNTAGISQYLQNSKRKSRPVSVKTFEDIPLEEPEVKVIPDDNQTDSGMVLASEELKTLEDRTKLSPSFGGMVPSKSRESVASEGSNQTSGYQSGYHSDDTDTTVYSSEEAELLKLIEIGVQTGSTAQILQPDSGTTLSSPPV
Chain of Aurora A (O14965 whole entry): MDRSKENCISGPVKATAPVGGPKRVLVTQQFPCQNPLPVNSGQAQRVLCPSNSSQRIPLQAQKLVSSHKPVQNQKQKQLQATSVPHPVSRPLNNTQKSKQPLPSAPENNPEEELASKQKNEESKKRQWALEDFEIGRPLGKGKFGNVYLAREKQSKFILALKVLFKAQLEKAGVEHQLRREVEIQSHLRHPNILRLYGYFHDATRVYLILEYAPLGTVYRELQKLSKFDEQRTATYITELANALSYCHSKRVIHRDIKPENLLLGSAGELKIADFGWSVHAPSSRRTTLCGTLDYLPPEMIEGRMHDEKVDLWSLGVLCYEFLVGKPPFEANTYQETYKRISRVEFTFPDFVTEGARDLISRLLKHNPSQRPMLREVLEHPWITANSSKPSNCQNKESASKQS
Chain of JAK2 (O60674 whole entry, species assumed): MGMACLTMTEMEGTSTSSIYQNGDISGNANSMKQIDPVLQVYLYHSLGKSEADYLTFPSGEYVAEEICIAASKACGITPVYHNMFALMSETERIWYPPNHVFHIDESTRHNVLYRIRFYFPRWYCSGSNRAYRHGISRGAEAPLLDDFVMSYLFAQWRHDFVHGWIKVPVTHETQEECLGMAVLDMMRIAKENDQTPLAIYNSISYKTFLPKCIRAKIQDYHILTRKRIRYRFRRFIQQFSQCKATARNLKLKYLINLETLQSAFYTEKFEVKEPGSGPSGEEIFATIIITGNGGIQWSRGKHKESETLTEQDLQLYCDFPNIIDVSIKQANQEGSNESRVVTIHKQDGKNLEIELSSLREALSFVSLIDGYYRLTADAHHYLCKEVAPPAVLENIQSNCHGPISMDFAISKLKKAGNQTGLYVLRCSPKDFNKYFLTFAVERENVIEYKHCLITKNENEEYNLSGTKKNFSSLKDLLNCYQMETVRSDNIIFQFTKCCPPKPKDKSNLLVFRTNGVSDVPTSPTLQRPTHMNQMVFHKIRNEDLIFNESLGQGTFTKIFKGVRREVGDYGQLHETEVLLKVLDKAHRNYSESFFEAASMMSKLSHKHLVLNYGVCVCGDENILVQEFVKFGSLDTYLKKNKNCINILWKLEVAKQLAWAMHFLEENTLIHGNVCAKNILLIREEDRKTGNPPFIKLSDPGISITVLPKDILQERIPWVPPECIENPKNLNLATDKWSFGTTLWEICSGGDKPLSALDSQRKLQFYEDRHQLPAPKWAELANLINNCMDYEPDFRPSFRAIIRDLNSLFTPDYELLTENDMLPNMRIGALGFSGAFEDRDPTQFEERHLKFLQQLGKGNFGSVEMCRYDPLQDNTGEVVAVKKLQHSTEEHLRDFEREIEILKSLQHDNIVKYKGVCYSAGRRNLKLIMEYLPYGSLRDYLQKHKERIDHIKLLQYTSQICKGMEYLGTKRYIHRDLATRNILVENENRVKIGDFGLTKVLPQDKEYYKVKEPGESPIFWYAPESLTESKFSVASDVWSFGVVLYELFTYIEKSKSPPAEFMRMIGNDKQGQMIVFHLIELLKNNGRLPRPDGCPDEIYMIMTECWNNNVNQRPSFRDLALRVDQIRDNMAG
Chain of GSK3β (P49841 whole entry, species assumed): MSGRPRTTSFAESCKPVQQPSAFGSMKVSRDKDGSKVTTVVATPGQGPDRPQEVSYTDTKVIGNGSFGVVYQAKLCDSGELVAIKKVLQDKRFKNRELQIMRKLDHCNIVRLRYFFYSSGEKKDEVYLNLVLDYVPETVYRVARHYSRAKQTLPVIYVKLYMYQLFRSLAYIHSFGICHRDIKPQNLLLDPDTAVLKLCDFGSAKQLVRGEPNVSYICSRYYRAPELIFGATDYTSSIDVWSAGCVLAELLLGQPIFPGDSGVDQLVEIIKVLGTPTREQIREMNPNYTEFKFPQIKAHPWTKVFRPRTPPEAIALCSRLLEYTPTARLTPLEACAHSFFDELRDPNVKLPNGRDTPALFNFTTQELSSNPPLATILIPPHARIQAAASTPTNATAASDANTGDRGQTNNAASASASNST
Chain of c-Src (P12931 whole entry, species assumed): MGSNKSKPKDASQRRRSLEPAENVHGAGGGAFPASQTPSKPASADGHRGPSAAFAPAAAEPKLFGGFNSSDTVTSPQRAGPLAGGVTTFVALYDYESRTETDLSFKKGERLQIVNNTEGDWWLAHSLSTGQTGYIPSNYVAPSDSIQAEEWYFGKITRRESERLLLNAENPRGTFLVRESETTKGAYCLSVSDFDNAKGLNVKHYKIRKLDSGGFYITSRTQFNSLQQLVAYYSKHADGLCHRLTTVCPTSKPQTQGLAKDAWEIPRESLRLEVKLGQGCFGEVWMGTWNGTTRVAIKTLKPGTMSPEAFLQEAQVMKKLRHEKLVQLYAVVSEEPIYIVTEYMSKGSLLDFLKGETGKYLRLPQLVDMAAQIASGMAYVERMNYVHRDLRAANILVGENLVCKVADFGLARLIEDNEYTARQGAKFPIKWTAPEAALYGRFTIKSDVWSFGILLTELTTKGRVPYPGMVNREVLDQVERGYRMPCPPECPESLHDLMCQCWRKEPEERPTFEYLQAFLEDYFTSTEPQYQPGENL
Chain of c-KIT (P10721 26-976): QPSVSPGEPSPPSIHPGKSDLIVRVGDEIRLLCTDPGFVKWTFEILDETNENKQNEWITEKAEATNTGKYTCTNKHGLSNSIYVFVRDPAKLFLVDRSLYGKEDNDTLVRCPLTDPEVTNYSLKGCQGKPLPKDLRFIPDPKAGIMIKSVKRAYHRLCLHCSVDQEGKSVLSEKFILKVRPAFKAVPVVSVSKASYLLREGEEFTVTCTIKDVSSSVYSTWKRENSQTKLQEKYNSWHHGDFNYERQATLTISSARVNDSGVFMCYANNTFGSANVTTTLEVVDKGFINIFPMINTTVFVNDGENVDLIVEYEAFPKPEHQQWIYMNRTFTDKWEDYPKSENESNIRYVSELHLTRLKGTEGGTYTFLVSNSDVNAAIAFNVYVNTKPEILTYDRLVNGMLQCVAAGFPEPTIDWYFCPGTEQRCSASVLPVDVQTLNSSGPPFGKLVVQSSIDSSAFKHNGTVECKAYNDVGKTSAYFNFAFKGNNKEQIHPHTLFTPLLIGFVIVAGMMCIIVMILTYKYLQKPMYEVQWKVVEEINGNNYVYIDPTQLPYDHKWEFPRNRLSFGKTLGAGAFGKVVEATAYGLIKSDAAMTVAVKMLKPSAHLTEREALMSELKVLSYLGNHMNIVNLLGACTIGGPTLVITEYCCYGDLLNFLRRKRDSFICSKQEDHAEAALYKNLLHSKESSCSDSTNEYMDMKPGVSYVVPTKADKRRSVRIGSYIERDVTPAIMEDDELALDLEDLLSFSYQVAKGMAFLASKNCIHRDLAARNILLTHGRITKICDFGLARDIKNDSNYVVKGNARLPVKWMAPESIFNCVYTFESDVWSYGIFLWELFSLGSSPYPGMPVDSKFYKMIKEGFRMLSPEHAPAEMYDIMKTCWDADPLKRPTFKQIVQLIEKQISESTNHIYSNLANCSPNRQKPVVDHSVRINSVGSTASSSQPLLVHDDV

IC50 [1]: 33 nM | IC50 (A549 lung cancer cells): 46.1 nM | IC50 (MOLM13 AML cells): 7.5 nM | IC50 (FLT3 (ITD)): 1.09 nM | IC50 [2]: 169 nM | IC50 (c-KIT): 321 nM | IC50 (ABL1): 434 nM | IC50 (c-Src): 13.8 nM | IC50 [3]: 44.7 nM | IC50 (JAK2): 169 nM | IC50 (FLT3 (D835Y)): < 0.5 nM | IC50 (CDK2/cyclin A): 1.08 nM | IC50 (A2058 melanoma cells): 88.9 nM | IC50 (Aurora A): 217 nM | IC50 (PDGFR β): 9.1 nM | IC50 (FLT3 [4]): 1.39 nM | selectivity for FLT3 and mutated FLT3 kinases within class III receptor tyrosine kinase family (FLT3 [5]): selectively inhibits | IC50 (BRAF): 7410 nM | IC50 (AKT1): 327 nM | IC50 (ABL1 (T315I)): 3400 nM | IC50 (KDR/vEGFR2): 245 nM | IC50 (PDGFR α): 72.2 nM | IC50 (MV4-11 AML cells): 3.7 nM | IC50 (FMS): 16 nM | IC50 (GSK3β): 1.18 nM | IC50 (IGF1R): 31.8 nM
SMILES: CNCCO/N=C1/C(=C2/C(=O)Nc3ccc(Br)cc32)Nc2ccccc21 [5IN-1NH1s]
IC50 (KCL22 CML cells): 72.8 nM | IC50 [6]: 52.7 nM

From US11964941B2, “5-Bromo-indirubins” (City of Hope, priority 2014, dated 2024)
